{"source": "patent US5168102A", "about": "“Endocrine manipulation to improve body composition of poultry” (priority 1990, dated 1992)", "key": {"[1]": {"assay": "Example 1: growth and feed efficiency of broiler cockerels fed thyroid-active substances with or without daily ncGH injection", "type": "in vivo, broiler cockerels (Ross X Arbor Acre strain)", "text": "(§1) The purpose of this study was to determine the effect manipulating blood levels of thyroid hormones and/or growth hormone on growth performance and body composition of broiler chickens. […] Purified natural chicken growth hormone (ncGH) was obtained from the Research and Education Center, Harbor-UCLA Medical Center, Torrance, Calif. […] The premix (200 g) was then used to prepare 50 kg batches of each experimental diet according to the formula for broiler-finisher ration described in Table 1. The diet containing 0.5% PTU was prepared by mixing 250 g of PTU into 49.75 kg of the basal ration (Table 1).\n(§2) Broiler cockerels (Ross X Arbor Acre strain) were raised to 3 weeks-of-age in a battery-brooder and then transferred to wire grow-out cages (4 birds/pen) held in two controlled-environment rooms (10 pens/room). Beginning at 3 weeks of age, eight birds (2 pens of 4 birds) were randomly assigned to each of 10 treatments. The chickens were provided the experimental diets and water ad libitum. […] For injection, the ncGH was reconstituted in sterile 0.025M sodium bicarbonate buffer (pH 9.8). The 10 treatments were administered for 21 days (i.e., from 3 to 6 weeks of age).\n(§3) Measurement of body weight and feed consumption at weekly intervals allowed calculation of the average daily gain (ADG, g/bird/day), average daily feed consumption (ADFC, g/bird/day) and the feed-to-gain ratio (FIG, kg feed/kg gain) over the 21 day experimental period. Blood samples were taken each week (4, 5, and 6 weeks) just before (pre-injection) and 4 hours post-injection of ncGH. […] At the conclusion of the study, birds were killed and the carcasses frozen for proximate analysis. The frozen carcasses were ground in a meat grinder and aliquots of each ground carcass taken for determination of moisture, protein, fat and ash by established analytical procedures (Official Method of Analysis, Edition 13, W. Horwitz ed., Association of Official Analytical Chemist, Washington, D.C., 1980). Body composition data are presented as a percent of live weight at 6 weeks-of-age. Least squares regression analysis was used to test for significant differences (P<0.05) due treatment."}, "[2]": {"assay": "Example 1: body composition (proximate analysis of carcass)", "type": "in vivo, broiler cockerels (Ross X Arbor Acre strain)", "text": "as §1, §2, §3"}, "[3]": {"assay": "Example 2: final body weight, liver, abdominal fat and body composition", "type": "in vivo, broiler cockerels (Ross X Arbor Acre)", "method": "Forty-eight 3-week-old broiler cockerels (Ross X Arbor Acre) were randomly divided into four treatment groups that contained three pens of four birds. The birds were housed in a controlled-environment room under a 20 hour light/4 hour dark cycle with feed and water provided ad libitum.\nThe preparation of ncGH used in this study was from the same lot used in Example 1.\nBody weights and feed consumption was determined at weekly intervals although the ADG, ADFC and FTG ratio was determined over the 21 day period. […] At the conclusion of the study (6 weeks-of-age), birds were killed and the abdominal fat removed and weighed. The liver and abdominal fat were returned to the carcass which was frozen for proximate analysis as described in […]"}, "[4]": {"text": "Referring now to broiler chickens as a benchmark for the beneficial effects of this invention, it must be noted that these chickens grow from a weight of 30 to 50 grams at hatching to about 1.5-3 or even as much as 5 kilograms of body weight at market age. Of this market weight, 15-20 wt.-% is protein, 2-3 wt.-% is inorganic (showing up as ash in proximate analysis of body composition), and more than 10 wt.-% (e.g. 10-20 wt.-%) is fat, which means that the protein:fat ratio (by weight) is likely to be at or below 1.5:1 and certainly well below 2:1."}, "[5]": {"conditions": "supplemented diets; cited from earlier work"}, "[6]": {"conditions": "Group 1, dietary, 6 weeks-of-age, N = 8"}}, "note": "Read-outs that look alike come from different tables or passages of the source."}
{"smiles": "N[C@@H](Cc1cc(I)c(Oc2ccc(O)c(I)c2)c(I)c1)C(=O)O", "note": "[T3, 3,3',5-triiodo-L-thyronine]", "values": [{"measurement": "BW (body weight)", "setting": "[1]; 1 ppm T3, 1 ppm T4, 5 ppm TRH or 0.5% PTU in feed, 3 to 6 weeks of age, Group 1, mean ±SEM", "result": "1.70 ± .09 kg"}, {"measurement": "effect on growth rate and feed efficiency", "setting": "[1]; Group 1, dietary", "result": "did not affect growth rate or feed efficiency"}, {"measurement": "ADFC (average daily feed consumption)", "setting": "[1]; Group 1, dietary, 21 days", "result": "101.1 ± 5.2", "unit": "g/bird/day"}, {"measurement": "ADG (average daily weight gain)", "setting": "[1]; Group 1, dietary, 21 days", "result": "48.8 ± 4.3", "unit": "g/bird/day"}, {"measurement": "FTG (feed-to-gain ratio)", "setting": "[1]; Group 1, dietary, 21 days", "result": "2.08 ± .08 kg feed/kg gain"}, {"measurement": "Body composition: Ash", "setting": "[2]; [6]", "result": "2.19 ± .05 % BW"}, {"measurement": "Body composition: Fat", "setting": "[2]; [6]", "result": "10.1 ± 1.2", "unit": "% BW"}, {"measurement": "Body composition: Protein", "setting": "[2]; [6]", "result": "18.4 ± .22 % BW"}, {"measurement": "Body composition: Water", "setting": "[2]; [6]", "result": "68.6 ± 1.0", "unit": "% BW"}, {"measurement": "effect on fat deposition", "setting": "[2]; finishing phase", "result": "decreases fat deposition in chickens"}, {"measurement": "body fat content, reduction", "setting": "[2]; vs CF group", "result": 17, "unit": "%"}, {"measurement": "effect on body protein, water and ash", "setting": "[2]; vs CF group", "result": "body protein and water were slightly increased"}, {"measurement": "body fat content (% BW), reduction", "setting": "[3]; 1 ppm T3, with or without ncGH", "result": 16, "unit": "%"}, {"measurement": "abdominal fat content, reduction", "setting": "[3]; 1 ppm T3, with or without ncGH (P<0.05)", "result": 28, "unit": "%"}, {"measurement": "Body Weight (BW), final", "setting": "[3]; 1 ppm T3 and/or ncGH 100 μg/kg/day, 6 weeks-of-age, N = 12", "result": "1.86 ± .048 kg"}, {"measurement": "Abdominal Fat, relative weight", "setting": "[3]; N = 12", "result": "1.86 ± .396 % BW"}, {"measurement": "Body composition: Ash", "setting": "[3]; N = 12", "result": "2.40 ± .054 % BW"}, {"measurement": "Body composition: Fat", "setting": "[3]; N = 12", "result": "13.2 ± .62 % BW"}, {"measurement": "Body composition: Protein", "setting": "[3]; N = 12", "result": "17.3 ± .36 % BW"}, {"measurement": "Body composition: Water", "setting": "[3]; N = 12", "result": "65.5 ± .60 % BW"}, {"measurement": "Liver, relative weight", "setting": "[3]; N = 12", "result": "2.54 ± .096 % BW"}, {"measurement": "effect on body water and ash contents", "setting": "[3]; in vivo", "result": "increased"}, {"measurement": "effect on weight gain", "setting": "[4]; 0.1 ppm", "result": "no significant adverse effect upon weight gain can be detected"}, {"measurement": "protein content of the carcass relative to fat content", "setting": "[4]; 0.1 ppm", "result": "improved relative to fat content"}, {"measurement": "effect on growth rate", "setting": "[4]; 0.25 ppm", "result": "virtually no statistically significant adverse effect on growth rate"}, {"measurement": "effect on weight gain", "setting": "[4]; 1 ppm", "result": "some deviation from normal weight gain is observed"}, {"measurement": "depressed growth rate in dwarf strains", "setting": "[5]", "result": "restored to normal"}]}
